Assay results: ChEMBL document CHEMBL3763104, “Antibacterial and antifungal activities of 2,3-pyrrolidinedione derivatives against oral pathogens” (2016)

What was measured:
Candida albicans [1] = test: Antimicrobial activity against Candida albicans ATCC 90028 biofilm at 0.008 % after 1 hr by MTT assay relative to control; assay type: functional
Streptococcus mutans [2] = test: Antimicrobial activity against Streptococcus mutans ATCC 35668 biofilm at 0.04 % after 1 hr by MTT assay relative to control; assay type: functional
Candida albicans [3] = test: Antimicrobial activity against Candida albicans ATCC 90028 biofilm at 0.004 % after 1 hr by MTT assay relative to control; assay type: functional
Candida albicans [4] = test: Antimicrobial activity against Candida albicans ATCC 90028 biofilm at 0.2 % after 1 hr by MTT assay relative to control; assay type: functional
Streptococcus mutans [5] = test: Antimicrobial activity against Streptococcus mutans ATCC 35668 biofilm at 0.2 % after 1 hr by MTT assay relative to control; assay type: functional
Candida albicans [6] = test: Antimicrobial activity against Candida albicans ATCC 90028 biofilm at 1 % after 1 hr by MTT assay relative to control; assay type: functional
Streptococcus mutans [7] = test: Antimicrobial activity against Streptococcus mutans ATCC 35668 biofilm at 0.008 % after 1 hr by MTT assay relative to control; assay type: functional
Candida albicans [8] = test: Antimicrobial activity against Candida albicans ATCC 90028 biofilm after 1 hr by MTT assay; assay type: functional, organism-based
Streptococcus mutans [9] = test: Antimicrobial activity against Streptococcus mutans ATCC 35668 biofilm at 1 % after 1 hr by MTT assay relative to control; assay type: functional

| SMILES | inhibition (INH) (Candida albicans [1]) [%] | inhibition (INH) (Streptococcus mutans [2]) [%] | inhibition (INH) (Candida albicans [3]) [%] | inhibition (INH) (Candida albicans [4]) [%] | inhibition (INH) (Streptococcus mutans [5]) [%] | inhibition (INH) (Candida albicans [6]) [%] | inhibition (INH) (Streptococcus mutans [7]) [%] | inhibition (Candida albicans [8]) | inhibition (INH) (Streptococcus mutans [9]) [%] |
| --- | --- | --- | --- | --- | --- | --- | --- | --- | --- |
| CCOC(=O)C1=C(OCc2ccccc2)C(=O)N(Cc2ccc(OC)cc2)C1 | 6 | 5 | 14.7 | 23.1 | 2.7 | 32.3 | 1 | Dose-dependent effect | 0 |
| CCOC(=O)C1=C(O[Si](C)(C)C(C)(C)C)C(=O)N(Cc2ccc(OC)cc2)C1 | 23.5 | 0.1 | 11.8 | 12.2 | 1.8 | 17 | 1.4 | – | 50.6 |
| CCCCCCCC/C=C/C1=C(OCc2ccccc2)C(=O)N(Cc2ccc(OC)cc2)C1 | 0.2 | 14.1 | 24.5 | 34 | 92.7 | 60.8 | 2.4 | Dose-dependent effect | 93.2 |
| CCOC(=O)C1=C(OCc2ccccc2)C(=O)N(C(=O)C(NC(=O)OC(C)(C)C)C(C)C)C1 (stereo unspecified) | 10.1 | 28 | 7.3 | 16.7 | 48.6 | 50.7 | 23.1 | Dose-dependent effect | 89.5 |
| CCOC(=O)C1=C(OCc2ccccc2)C(=O)N(C(=O)[C@@H](N)C(C)C)C1.O=C(O)C(F)(F)F | 18.5 | 1.2 | 12.3 | 11.9 | 3.1 | 36.7 | 0.7 | – | 47.3 |
| CCCCCCCCCCC1=C(O[Si](C)(C)C(C)(C)C)C(=O)N(Cc2ccc(OC)cc2)C1 | 12.1 | 4.3 | 9 | 1.9 | 3.4 | 31.6 | 10.7 | – | 0 |
| N=C(NCCCCCCNC(=N)NC(=N)Nc1ccc(Cl)cc1)NC(=N)Nc1ccc(Cl)cc1 [CHLORHEXIDINE] | – | – | – | 49.9 | 93.6 | – | – | – | – |
| COc1ccc(CN2CC(CO)=C(O[Si](C)(C)C(C)(C)C)C2=O)cc1 | 4.5 | 15.4 | 19.4 | 21.3 | 13.3 | 1 | 11.4 | – | 19.1 |
| COc1ccc(CN2CC(CO)=C(OCc3ccccc3)C2=O)cc1 | 7.5 | 4.5 | 6.3 | 20.9 | 2.8 | 36.1 | 0 | Dose-dependent effect | 5 |
| CCOC(=O)C1=C(O)C(=O)N(Cc2ccc(OC)cc2)C1 | 19.8 | 3.4 | 17.2 | 10.7 | 51.3 | 45.5 | 0 | – | 25.6 |
| CCOC(=O)C1=C(OC)C(=O)N(C(=O)C(NC(=O)OC(C)(C)C)C(C)C)C1 (stereo unspecified) | 0 | 9.4 | 7.8 | 15.7 | 16.1 | 30.7 | 5 | Dose-dependent effect | 32.6 |
| CCOC(=O)C1=C(OCc2ccccc2)C(=O)NC1 | 9.2 | 3 | 23.2 | 27.9 | 4.8 | 43.2 | 1.3 | Dose-dependent effect | 3.4 |
